From patent US9112158B1, “Asymmetric styrene derivatives having carbazole and aniline and organic light emitting diode using the same” (National Tsing Hua University, priority 2014, dated 2015) come the findings set out here.

The series in a line: solubility of the compound in toluene. The format is physicochemical.

A value given as a limit tells only on which side of the number the result lay.

In turn, `C(=C\c1ccc(N(c2ccccc2)c2ccccc2)cc1)/c1ccc(-c2ccc(/C=C/c3ccc4c(c3)c3ccccc3n4-c3ccccc3)cc2)cc1` [PCzDPA, N,N-diphenyl-4-[(E)-2-(4-{4-[(E)-2-(9-phenyl-9H-carbazol-3-yl)ethenyl]phenyl}phenyl)ethenyl]aniline] registered a Solubility of over 1 wt %. The result for `C(=C\c1ccc(N(c2ccccc2)c2cccc3ccccc23)cc1)/c1ccc(-c2ccc(/C=C/c3ccc4c(c3)c3ccccc3n4-c3ccccc3)cc2)cc1` [PCzNA, N-phenyl-N-{4-[(E)-2-(4-{4-[(E)-2-(9-phenyl-9H-carbazol-3-yl)ethenyl]phenyl}phenyl)ethenyl]phenyl}naphthalen-1-amine] reads over 1 wt %.
